From patent publication US8703790B2, “Bis [O-(14-benzoylaconine-8-yl)] esters” (priority 2008, dated 2014)

Experiments:
[1] = system: DNA topoisomerase II (Topo II); assay: Topo II catalytic activity, decatenation of kDNA; assay type: biochemical; conditions: 1, 10, 100 and 1000 μM; dose independent
Experimental: Test for revelation of the possible inhibitory effect of SDD on Topo II catalytic activity has been undertaken by decatenation of a catenated DNA substrate originating from Trypanosoma kinetoplasts (kDNA, TopoGen) into relaxed DNA forms.
The following standard reaction mixture contained 40 mM Tris/HCl pH 7.4, 10 mM MgCl2, 0.5 mM dithiothreitol, 1 mM ATP and […] kDNA has been carried out.
The reaction was initiated by the addition of 0.35 M NaCl nuclear extract and stopped after 20 min incubation at 37° C. by adding a denaturating solution containing 30% glycerol, 1% SDS, 0.5 mg/ml bromphenol blue.
The samples were then electrophoresed on a 1% agarose gel in 40 mM Tris/acetic acid, pH 8.0 containing 2 mM EDTA and 0.1 μg/ml ethidium bromide, for 45 min at 80V.
A positive control for decatenation was a decatenated kDNA marker obtained from TopoGen, containing a mixture of two species of relaxed
DNA, open circular DNA and covalently closed circular DNA.
DNA was visualized under UV light and the various DNA forms were quantified by densitometric scanning using the device described above.
Etoposide was used as positive control, as it is described in the following publication: Differential stabilisation of topoisomerase-II-DNA cleavable complexes doxorubicine and etoposide in doxorubicin-resistant rat glioblastoma cells. […]

[2] = Partition coefficient log D (pH 7.4), micro HPLC method, n-octanol/phosphate buffer; assay type: physicochemical; conditions: n-octanol/phosphate buffer pH 7.4
Experimental: The relative log D (pH 7.4) in this study was assessed by the micro HPLC method which is disclosed in A microscale HPLC method for the evaluation of octanol-water partition coefficients in a series of new 2-amino-2oxazolines Pehourcq, F.; Thomas, J.; Jarry, C., J. Liq. Chromatogr. Relat. Technol. (2000), 23, 443-453.
These determinations were performed with a chromatographic apparatus (Spectra Series, San Jose, USA). A reversed phase column was used: a Stability RP18 (4.6×150 mm; 5 μm particle size) with a mobile phase consisting of acetonitrile (+1‰ trifluoroacetic acid)−water (+1‰ trifluoroacetic acid) (40:60 v/v).
The compound was partitioned between n-octanol (HPLC grade) and phosphate buffer (pH=7.4). Octanol was presatured with buffer, and conversely. An amount of 1 mg of the compound was dissolved in an adequate volume of methanol in order to achieve 1 mg/mL stock solutions. Then, an appropriate aliquot of this methanolic solution was dissolved in buffer to obtain final concentration of 100 μg/mL. Under the above described chromatographic conditions, 20 μL of this aqueous phase was injected into the chromatograph, leading to the determination of a peak area before partitioning (W0).
In screw-capped tubes, 2000 μL of the aqueous phase (Vag) was then added to 10 μL of n-octanol (Voct) at pH=7.4. […] Log D was calculated from the formula: log D=log [(W0−W1)Vaq/W1Voct].

A549 (lung cancer) = assay: In vitro cytotoxicity test (MTT) against human tumour cell line A549; assay type: cell-based; conditions: A549, 24 h contact, 48 h re-growth
Experimental: (§1) Human tumour cell lines A549 (lung cancer), HCT-15 (colon cancer) and MCF-7 (breast cancer) have been obtained from the Developmental Therapeutics Program of the National Cancer Institute (Rockville, Md., USA). Cells were routinely grown with RPMI 1640 medium supplemented with 10% foetal calf serum, both obtained from Biochrom AG (Berlin, Germany). They were grown on Petri dishes (Nunc, Denmark) at 37° C. in a humidified atmosphere containing 5% CO2. Cells were replicated every 4 days and the medium changed once in-between.
(§2) Cytotoxicity has been evaluated on exponentially growing cells grown for 24 h in presence of the compounds to be tested. Briefly, 4000 cells were seeded in 96-well plates with 200 μL of complete medium; 24 hours later the medium was supplemented with a series of different concentrations of compounds and the contact maintained for 24 h. Compounds were dissolved in pure water and sterilised using polycarbonate membrane filters of 0.22 μm (Millipore, Molsheim, France). The cells were then allowed to re-grow for 48 hours; viable and metabolically active cells were quantitatively estimated by coloration with the MTT dye (1-(4,5-dimethylthyazol-2-yl)-3,5-diphenylformazan), Sigma-Aldrich Chimie, Saint-Quentin-Fallavier, France). The amount of substance allowing a 50% decrease in cell numbers is indicative of the cytotoxicity and represents the IC50 of compound.

HCT-15 (colon cancer) = assay: In vitro cytotoxicity test (MTT) against human tumour cell line HCT-15; assay type: cell-based; conditions: HCT-15, 24 h contact, 48 h re-growth
Experimental: as §1, §2

A549 = assay: Cell cycle arrest, propidium iodide flow cytometry, A549; assay type: cell-based, human
Experimental: 10^6 Cells of A549, HCT-15 and MCF-7 cell lines have been seeded in Petri dishes with RPMI-1640 medium. 24 h later, SDD has been dissolved in water at a concentration of 20 μM and was directly added to the culture medium. Contact was maintained for 72 h. Then, cells have been detached by trypsinization, collected and rinsed by PBS and counted on hemocytometer. Cells were centrifuged for 5 min at 1500 rpm, then resuspended in a defined volume of PBS to obtain 2.5×10^6 cell/mL. 100 μL of cell suspension was digested to nuclei by trypsin for 10 min. Then, a solution containing trypsin inhibitor and RNAse was added to cell suspension and left for 10 min. Finally, cells were stained by propidium iodide and were analysed by flow-cytometry apparatus. Distribution of cells among the different phases of the cycle was determined by the procedure disclosed in: A detergent-trypsin method for preparation of nuclei for flow cytometric DNA analysis. Vindelov, L.; Christensen, I.; Nissen, N.; Cytometry (1983), 3, 323-327.
• G0G1: cell in the phase of GOG1 • G2M: cells in the phase of G2M • S: cells in the phase of DNA synthesis • Sub G1: apoptotic cells • SUP G2M: diploidic cells

MCF-7 (breast cancer) = assay: In vitro cytotoxicity test (MTT) against human tumour cell line MCF-7; assay type: cell-based; conditions: MCF-7, 24 h contact, 48 h re-growth
Experimental: as §1, §2

[3] = A549, SDD 20 μM, 72 h, percentage of total cell population

For `CCN1C[C@]2(COC)[C@H](O)C[C@H](OC)[C@]34C1[C@H]([C@H](OC)[C@H]23)[C@]1(OC(=O)CCCCCCC(=O)O[C@]23[C@H]5[C@@H](OC(=O)c6ccccc6)[C@](O)(C[C@H]5[C@@]56C7[C@@H]2[C@H](OC)[C@@H]5[C@](COC)(CN7CC)[C@H](O)C[C@@H]6OC)[C@@H](OC)[C@@H]3O)[C@H]2[C@@H](OC(=O)c3ccccc3)[C@](O)(C[C@H]24)[C@@H](OC)[C@@H]1O` [SDD, bis[O-(14-benzoylaconine-8-yl)]-suberate], the “inhibition of Topo II activity compared to etoposide” value [1] was “relatively moderate inhibition”, the “log D (pH 7.4)” value [2] was 2.86 and the IC50 (A549 (lung cancer)) was 18.7 µM. For the same molecule, the IC50 (HCT-15 (colon cancer)) was 3.7 µM, the “accumulation of cells in the G2M and S phases” value (A549; A549, 20 μM) was “significant accumulation” and the “increase of number of cells arrested at S phase as compared to control” value (A549; A549, SDD 20 μM) was “more than 100%”. The “increase of number of cells in the G2M phase as compared to control” value (A549; A549, SDD 20 μM) was 85%, the ALL % (A549; [3]) was 100% and the G0G1 % (A549; [3]) was 53.04%. The G2M % (A549; [3]) was 16.42%, the S % (A549; [3]) was 25.49% and the “SUP G2M % (diploidic cells)” value (A549; [3]) was 2.09%. For the same molecule, the “SubG1 % (apoptotic cells)” value (A549; [3]) was 3.34%, the “cell distribution in the cell cycle” value (A549; A549, SDD concentration close to IC50) was “altered” and the “Percentage of survival cells, G0G1 %” value (A549; A549, SDD, survival cells) was 55.86%. For the same molecule, the “Percentage of survival cells, G2M %” value (A549; A549, SDD, survival cells) was 17.29%, the “Percentage of survival cells, S %” value (A549; A549, SDD, survival cells) was 26.84% and the IC50 (MCF-7 (breast cancer)) was 3.7 µM.
